Test results as given in the supplement of paper PMC10307832.

Key:
Assay in all cases: relative viability (nuclei count vs DMSO), 5 days (fraction); higher = more cells survive
Gemcitabine + Phenformin = compound: Nc1ccn([C@@H]2O[C@H](CO)[C@@H](O)C2(F)F)c(=O)n1 [Gemcitabine] + N=C(N)NC(=N)NCCc1ccccc1 [Phenformin] (partner 250 µM)
Method in brief: (§1)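 Lung cancer cell lines in 1536-well plates were dosed by pin tool the day after seeding, either with one drug alone or with a fixed anchor-drug dose plus five library-drug doses (not always all listed) in √10 steps. After 5 days, cells were fixed and their nuclei stained in one step (final 0.05% Triton X-100, 1% formaldehyde, 1 ug/ml Hoechst), then counted on 4× images. Relative viability is the nuclei count in treated wells divided by that in vehicle wells. Values are medians of duplicate plates.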

Gemcitabine + Pictilisib = compound: Nc1ccn([C@@H]2O[C@H](CO)[C@@H](O)C2(F)F)c(=O)n1 [Gemcitabine] + CS(=O)(=O)N1CCN(Cc2cc3nc(-c4cccc5[nH]ncc45)nc(N4CCOCC4)c3s2)CC1 [Pictilisib] (partner 1 µM)
Method in brief: as §1

Gemcitabine + AZD7762 = compound: Nc1ccn([C@@H]2O[C@H](CO)[C@@H](O)C2(F)F)c(=O)n1 [Gemcitabine] + NC(=O)Nc1cc(-c2cccc(F)c2)sc1C(=O)N[C@H]1CCCNC1 [AZD7762] (partner 0.2 µM)
Method in brief: as §1

Gemcitabine + Alpelisib = compound: Nc1ccn([C@@H]2O[C@H](CO)[C@@H](O)C2(F)F)c(=O)n1 [Gemcitabine] + Cc1nc(NC(=O)N2CCC[C@H]2C(N)=O)sc1-c1ccnc(C(C)(C)C(F)(F)F)c1 [Alpelisib] (partner 2 µM)
Method in brief: as §1

| Cell Line | relative viability (Gemcitabine + Phenformin; first compound 0.001 µM) | relative viability (Gemcitabine + Phenformin; first compound 0.003162 µM) | relative viability (Gemcitabine + Phenformin; first compound 0.01 µM) | relative viability (Gemcitabine + Phenformin; first compound 0.03162 µM) | relative viability (Gemcitabine + Phenformin; first compound 0.1 µM) | relative viability (Gemcitabine + Pictilisib; first compound 0.001 µM) | relative viability (Gemcitabine + Pictilisib; first compound 0.003162 µM) | relative viability (Gemcitabine + Pictilisib; first compound 0.01 µM) | relative viability (Gemcitabine + Pictilisib; first compound 0.03162 µM) | relative viability (Gemcitabine + Pictilisib; first compound 0.1 µM) | relative viability (Gemcitabine + AZD7762; first compound 0.001 µM) | relative viability (Gemcitabine + AZD7762; first compound 0.003162 µM) | relative viability (Gemcitabine + AZD7762; first compound 0.01 µM) | relative viability (Gemcitabine + AZD7762; first compound 0.03162 µM) | relative viability (Gemcitabine + AZD7762; first compound 0.1 µM) | relative viability (Gemcitabine + Alpelisib; first compound 0.001 µM) | relative viability (Gemcitabine + Alpelisib; first compound 0.003162 µM) | relative viability (Gemcitabine + Alpelisib; first compound 0.01 µM) | relative viability (Gemcitabine + Alpelisib; first compound 0.03162 µM) | relative viability (Gemcitabine + Alpelisib; first compound 0.1 µM) |
| --- | --- | --- | --- | --- | --- | --- | --- | --- | --- | --- | --- | --- | --- | --- | --- | --- | --- | --- | --- | --- |
| HCC-366 | 0.622 | 0.662 | 0.144 | 0.0348 | 0.0327 | 0.188 | 0.136 | 0.0591 | 0.0347 | 0.0366 | 0.27 | 0.16 | 0.0204 | 0.0203 | 0.0152 | 0.516 | 0.359 | 0.0565 | 0.0184 | 0.0102 |
| HCC-827 | 0.448 | 0.248 | 0.281 | 0.197 | 0.154 | 1.11 | 0.845 | 0.89 | 0.591 | 0.389 | 0.128 | 0.12 | 0.107 | 0.11 | 0.133 | 0.895 | 0.48 | 0.56 | 0.391 | 0.167 |
| HOP-62 | 0.67 | 0.492 | 0.239 | 0.0719 | 0.0597 | 0.78 | 0.464 | 0.315 | 0.0682 | 0.0859 | 0.287 | 0.08 | 0.0514 | 0.0757 | 0.0617 | 0.829 | 0.572 | 0.0893 | 0.0529 | 0.061 |
| IA-LM |  |  |  |  |  | 0.336 | 0.332 | 0.219 | 0.1 | 0.0556 |  |  |  |  |  | 0.789 | 0.644 | 0.744 | 0.0658 | 0.0561 |
| LC-2-ad | 0.569 | 0.347 | 0.339 | 0.212 | 0.161 | 0.517 | 0.726 | 0.242 | 0.129 | 0.105 | 0.86 | 0.852 | 0.25 | 0.185 | 0.18 | 0.901 | 0.833 | 0.5 | 0.0947 | 0.0966 |
| LCLC-97TM1 | 0.376 | 0.406 | 0.179 | 0.187 | 0.144 | 0.141 | 0.167 | 0.126 | 0.11 | 0.12 | 0.105 | 0.0523 | 0.0434 | 0.0523 | 0.0703 | 0.228 | 0.131 | 0.115 | 0.107 | 0.128 |
| NCI-H520 | 0.536 | 0.554 | 0.225 | 0.163 | 0.154 | 0.333 | 0.321 | 0.254 | 0.199 | 0.161 |  |  |  |  |  | 0.933 | 0.897 | 0.461 | 0.195 | 0.142 |
| NCI-H661 | 0.282 | 0.263 | 0.231 | 0.197 | 0.226 | 0.352 | 0.388 | 0.288 | 0.224 | 0.242 |  |  |  |  |  | 0.594 | 0.503 | 0.185 | 0.177 | 0.172 |
| NCI-H1299 |  |  |  |  |  | 0.637 | 0.728 | 0.709 | 0.883 | 0.655 |  |  |  |  |  | 1.04 | 1.1 | 1.03 | 1.05 | 1.09 |
| NCI-H1563 | 0.66 | 0.605 | 0.53 | 0.494 | 0.497 | 0.599 | 0.669 | 0.652 | 0.634 | 0.506 |  |  |  |  |  | 0.99 | 0.94 | 0.635 | 0.651 | 0.428 |
| NCI-H1648 |  |  |  |  |  |  |  |  |  |  | 0.686 | 0.551 | 0.401 | 0.3 | 0.279 |  |  |  |  |  |
| NCI-H1650 | 0.437 | 0.202 | 0.154 | 0.129 | 0.121 | 0.524 | 0.466 | 0.267 | 0.181 | 0.144 |  |  |  |  |  |  |  |  |  |  |
| NCI-H1703 |  |  |  |  |  | 0.208 | 0.227 | 0.158 | 0.154 | 0.132 | 0.118 | 0.104 | 0.105 | 0.0773 | 0.0798 | 0.274 | 0.178 | 0.107 | 0.113 | 0.117 |
| NCI-H2009 | 0.496 | 0.317 | 0.198 | 0.175 | 0.146 | 0.872 | 0.419 | 0.157 | 0.128 | 0.101 |  |  |  |  |  | 1.15 | 0.552 | 0.276 | 0.12 | 0.112 |
| NCI-H2023 | 0.35 | 0.327 | 0.192 | 0.0945 | 0.0668 | 0.248 | 0.266 | 0.143 | 0.106 | 0.0734 |  |  |  |  |  | 0.703 | 0.542 | 0.415 | 0.214 | 0.066 |
| NCI-H2228 | 0.304 | 0.168 | 0.126 | 0.111 | 0.0895 | 0.375 | 0.417 | 0.294 | 0.236 | 0.123 |  |  |  |  |  | 0.74 | 0.534 | 0.144 | 0.123 | 0.134 |
| SK-LU-1 | 0.578 | 0.272 | 0.154 | 0.115 | 0.124 | 0.6 | 0.537 | 0.213 | 0.172 | 0.192 |  |  |  |  |  | 0.745 | 0.337 | 0.246 | 0.224 | 0.192 |
| SK-MES-1 | 0.552 | 0.249 | 0.191 | 0.158 | 0.154 | 0.333 | 0.254 | 0.164 | 0.136 | 0.149 |  |  |  |  |  | 0.658 | 0.454 | 0.21 | 0.189 | 0.183 |
| SW 900 | 0.654 | 0.181 | 0.0793 | 0.0687 | 0.0927 |  |  |  |  |  | 0.423 | 0.214 | 0.109 | 0.147 | 0.112 |  |  |  |  |  |
| SW 1573 | 0.353 | 0.202 | 0.104 | 0.0718 | 0.0652 | 0.543 | 0.272 | 0.178 | 0.086 | 0.0746 |  |  |  |  |  | 0.749 | 0.592 | 0.295 | 0.0967 | 0.0846 |
| UMC-11 | 0.384 | 0.349 | 0.328 | 0.275 | 0.185 | 0.942 | 0.908 | 0.821 | 0.714 | 0.228 |  |  |  |  |  | 1.15 | 0.931 | 0.885 | 0.792 | 0.239 |
